Reference: patent US20250147039A1, “Compounds for complexation of rare earth elements and/or s-, p-, d- block metals, their coordination compounds, peptide conjugates, method of their preparation and use thereof” (USTAV ORGANICKE CHEMIE A BIOCHEMIE AV CR V.V.I., priority 2021, published 2025)

Assays:
[1] = Formation of 1,5-cz-[Ln(Lig)] from Lig and Ln^III ions (metal dependent click-zip), MOPS/NaOH buffer pH 7.0, analytical HPLC (Charts 1, 2); details: MOPS/NaOH buffer pH 7.0
[2] = Formation of 1,5-cz-[Lu(Lig)] from Lig (metal dependent click-zip) with various absolute concentrations (Chart 12); format: physicochemical
[3] = pH dependent formation of 1,5- and 1,4-cz-Lig isomers from Lig (pH dependent click-zip) (Chart 13); format: physicochemical; details: A: 1 hour at 80° C.

C#Cc1cccc(CN2CCN(CC(=O)O)CCN(Cc3cc(-c4ccccc4)cc(CN=[N+]=[N-])n3)CCN(CC(=O)O)CC2)n1 [TD647]
conversion to 1,5-cz-[Ln(Lig)], Ce^III ([1]; after 1 week at 80° C.): 50%
conversion to 1,5-cz-[Ln(Lig)], Ce^III ([1]; after 1 hour at 80° C.): 1%
conversion to 1,5-cz-[Ln(Lig)], Dy^III ([1]; after 1 week at 80° C.): 92%
conversion to 1,5-cz-[Ln(Lig)], Dy^III ([1]; after 1 hour at 80° C.): 13%
conversion to 1,5-cz-[Ln(Lig)], Er^III ([1]; after 1 week at 80° C.): 95%
conversion to 1,5-cz-[Ln(Lig)], Er^III ([1]; after 1 hour at 80° C.): 32%
conversion to 1,5-cz-[Ln(Lig)], Eu^III ([1]; after 1 week at 80° C.): 89%
conversion to 1,5-cz-[Ln(Lig)], Eu^III ([1]; after 1 hour at 80° C.): 4%
conversion to 1,5-cz-[Ln(Lig)], Gd^III ([1]; after 1 week at 80° C.): 92%
conversion to 1,5-cz-[Ln(Lig)], Gd^III ([1]; after 1 hour at 80° C.): 5%
conversion to 1,5-cz-[Ln(Lig)], Ho^III ([1]; after 1 week at 80° C.): 95%
conversion to 1,5-cz-[Ln(Lig)], Ho^III ([1]; after 1 hour at 80° C.): 21%
conversion to 1,5-cz-[Ln(Lig)], La^III ([1]; after 1 week at 80° C.): 49%
conversion to 1,5-cz-[Ln(Lig)], La^III ([1]; after 1 hour at 80° C.): 1%
conversion to 1,5-cz-[Ln(Lig)], Lu^III ([1]; after 1 week at 80° C.): 96%
conversion to 1,5-cz-[Ln(Lig)], Lu^III ([1]; after 1 hour at 80° C.): 64%
conversion to 1,5-cz-[Ln(Lig)], Nd^III ([1]; after 1 week at 80° C.): 79%
conversion to 1,5-cz-[Ln(Lig)], Nd^III ([1]; after 1 hour at 80° C.): 1%
conversion to 1,5-cz-[Ln(Lig)], Pr^III ([1]; after 1 week at 80° C.): 69%
conversion to 1,5-cz-[Ln(Lig)], Pr^III ([1]; after 1 hour at 80° C.): 1%
conversion to 1,5-cz-[Ln(Lig)], Sm^III ([1]; after 1 week at 80° C.): 86%
conversion to 1,5-cz-[Ln(Lig)], Sm^III ([1]; after 1 hour at 80° C.): 3%
conversion to 1,5-cz-[Ln(Lig)], Tb^III ([1]; after 1 week at 80° C.): 91%
conversion to 1,5-cz-[Ln(Lig)], Tb^III ([1]; after 1 hour at 80° C.): 9%
conversion to 1,5-cz-[Ln(Lig)], Tm^III ([1]; after 1 week at 80° C.): 96%
conversion to 1,5-cz-[Ln(Lig)], Tm^III ([1]; after 1 hour at 80° C.): 48%
conversion to 1,5-cz-[Ln(Lig)], Yb^III ([1]; after 1 week at 80° C.): 96%
conversion to 1,5-cz-[Ln(Lig)], Yb^III ([1]; after 1 hour at 80° C.): 61%
conversion to 1,5-cz-[Lu(Lig)] ([2]; A: 1 hour at 80° C., Lig 5.0 × 10^0 mM, Lu^III 7.5 × 10^0 mM): 74%
conversion to 1,5-cz-[Lu(Lig)] ([2]; A: 1 hour at 80° C., Lig 5.0 × 10^1 mM, Lu^III 7.5 × 10^1 mM): 71%
conversion to 1,5-cz-[Lu(Lig)] ([2]; A: 1 hour at 80° C., Lig 5.0 × 10^−1 mM, Lu^III 7.5 × 10^−1 mM): 70%
conversion to 1,5-cz-[Lu(Lig)] ([2]; A: 1 hour at 80° C., Lig 5.0 × 10^−2 mM, Lu^III 7.5 × 10^−2 mM): 60%
conversion to 1,5-cz-[Lu(Lig)] ([2]; A: 1 hour at 80° C., Lig 5.0 × 10^−3 mM, Lu^III 7.5 × 10^−3 mM): 15%
conversion to 1,5-cz-[Lu(Lig)] ([2]; B: 1 day at 80° C., Lig 5.0 × 10^0 mM, Lu^III 7.5 × 10^0 mM): 96%
conversion to 1,5-cz-[Lu(Lig)] ([2]; B: 1 day at 80° C., Lig 5.0 × 10^1 mM, Lu^III 7.5 × 10^1 mM): 84%
conversion to 1,5-cz-[Lu(Lig)] ([2]; B: 1 day at 80° C., Lig 5.0 × 10^−1 mM, Lu^III 7.5 × 10^−1 mM): 97%
conversion to 1,5-cz-[Lu(Lig)] ([2]; B: 1 day at 80° C., Lig 5.0 × 10^−2 mM, Lu^III 7.5 × 10^−2 mM): 96%
conversion to 1,5-cz-[Lu(Lig)] ([2]; B: 1 day at 80° C., Lig 5.0 × 10^−3 mM, Lu^III 7.5 × 10^−3 mM): 59%
conversion to 1,5-cz-[Lu(Lig)] ([2]; C: 1 week at 80° C., Lig 5.0 × 10^0 mM, Lu^III 7.5 × 10^0 mM): 96%
conversion to 1,5-cz-[Lu(Lig)] ([2]; C: 1 week at 80° C., Lig 5.0 × 10^1 mM, Lu^III 7.5 × 10^1 mM): 86%
conversion to 1,5-cz-[Lu(Lig)] ([2]; C: 1 week at 80° C., Lig 5.0 × 10^−1 mM, Lu^III 7.5 × 10^−1 mM): 97%
conversion to 1,5-cz-[Lu(Lig)] ([2]; C: 1 week at 80° C., Lig 5.0 × 10^−2 mM, Lu^III 7.5 × 10^−2 mM): 96%
conversion to 1,5-cz-[Lu(Lig)] ([2]; C: 1 week at 80° C., Lig 5.0 × 10^−3 mM, Lu^III 7.5 × 10^−3 mM): 57%
conversion to 1,4-cz-Lig isomer ([3]; 0.1M HClO4 (pH ~1)): 3%
conversion to 1,5-cz-Lig isomer ([3]; 0.1M HClO4 (pH ~1)): 44%
conversion to 1,4-cz-Lig isomer ([3]; 1.0M HClO4 (pH ~0)): 2%
conversion to 1,5-cz-Lig isomer ([3]; 1.0M HClO4 (pH ~0)): 9%
conversion to 1,4-cz-Lig isomer ([3]; pH 2.2, 50 mM aq. buffer): 2%
conversion to 1,5-cz-Lig isomer ([3]; pH 2.2, 50 mM aq. buffer): 17%
conversion to 1,4-cz-Lig isomer ([3]; pH 3.0, 50 mM aq. buffer): 1%
conversion to 1,5-cz-Lig isomer ([3]; pH 3.0, 50 mM aq. buffer): 6%
conversion to 1,4-cz-Lig isomer ([3]; pH 3.8, 50 mM aq. buffer): 1%
conversion to 1,5-cz-Lig isomer ([3]; pH 3.8, 50 mM aq. buffer): 1%
conversion to 1,4-cz-Lig isomer ([3]; pH 4.6, 50 mM aq. buffer): 1%
conversion to 1,5-cz-Lig isomer ([3]; pH 4.6, 50 mM aq. buffer): 1%
conversion to 1,4-cz-Lig isomer ([3]; pH 5.4, 50 mM aq. buffer): 1%
conversion to 1,5-cz-Lig isomer ([3]; pH 5.4, 50 mM aq. buffer): 1%
conversion to 1,4-cz-Lig isomer ([3]; pH 6.2, 50 mM aq. buffer): 1%
conversion to 1,5-cz-Lig isomer ([3]; pH 6.2, 50 mM aq. buffer): 1%
conversion to 1,4-cz-Lig isomer ([3]; pH 7.0, 50 mM aq. buffer): 2%
conversion to 1,5-cz-Lig isomer ([3]; pH 7.0, 50 mM aq. buffer): 1%
conversion to 1,4-cz-Lig isomer ([3]; pH 8.6, 50 mM aq. buffer): 3%
conversion to 1,5-cz-Lig isomer ([3]; pH 8.6, 50 mM aq. buffer): 2%
conversion to 1,4-cz-Lig isomer ([3]; pH 9.4, 50 mM aq. buffer): 3%
conversion to 1,5-cz-Lig isomer ([3]; pH 9.4, 50 mM aq. buffer): 8%
conversion to 1,4-cz-Lig isomer ([3]; pH 10.2, 50 mM aq. buffer): 2%
conversion to 1,5-cz-Lig isomer ([3]; pH 10.2, 50 mM aq. buffer): 17%
